Reference: patent US10829473B2, “Modulators of the cystic fibrosis transmembrane conductance regulator protein and methods of use” (AbbVie Overseas S.Á.R.L., priority 2017, dated 2020)
Like-named read-outs stand apart in the source and are kept apart here. Marks after values point to notes of the source that are not given here.

Target: T1, F508delCFTR (Homo sapiens, UniProt P13569, DEL508-508)
T1 construct: expressed in transfected cells; host or cells: CFBE41o- human lung derived epithelial cells (CFBE41o-F508delCFTR-HRP), doxycycline-inducible
T1 sequence (P13569 with tags, fused parts or gaps DEL508-508): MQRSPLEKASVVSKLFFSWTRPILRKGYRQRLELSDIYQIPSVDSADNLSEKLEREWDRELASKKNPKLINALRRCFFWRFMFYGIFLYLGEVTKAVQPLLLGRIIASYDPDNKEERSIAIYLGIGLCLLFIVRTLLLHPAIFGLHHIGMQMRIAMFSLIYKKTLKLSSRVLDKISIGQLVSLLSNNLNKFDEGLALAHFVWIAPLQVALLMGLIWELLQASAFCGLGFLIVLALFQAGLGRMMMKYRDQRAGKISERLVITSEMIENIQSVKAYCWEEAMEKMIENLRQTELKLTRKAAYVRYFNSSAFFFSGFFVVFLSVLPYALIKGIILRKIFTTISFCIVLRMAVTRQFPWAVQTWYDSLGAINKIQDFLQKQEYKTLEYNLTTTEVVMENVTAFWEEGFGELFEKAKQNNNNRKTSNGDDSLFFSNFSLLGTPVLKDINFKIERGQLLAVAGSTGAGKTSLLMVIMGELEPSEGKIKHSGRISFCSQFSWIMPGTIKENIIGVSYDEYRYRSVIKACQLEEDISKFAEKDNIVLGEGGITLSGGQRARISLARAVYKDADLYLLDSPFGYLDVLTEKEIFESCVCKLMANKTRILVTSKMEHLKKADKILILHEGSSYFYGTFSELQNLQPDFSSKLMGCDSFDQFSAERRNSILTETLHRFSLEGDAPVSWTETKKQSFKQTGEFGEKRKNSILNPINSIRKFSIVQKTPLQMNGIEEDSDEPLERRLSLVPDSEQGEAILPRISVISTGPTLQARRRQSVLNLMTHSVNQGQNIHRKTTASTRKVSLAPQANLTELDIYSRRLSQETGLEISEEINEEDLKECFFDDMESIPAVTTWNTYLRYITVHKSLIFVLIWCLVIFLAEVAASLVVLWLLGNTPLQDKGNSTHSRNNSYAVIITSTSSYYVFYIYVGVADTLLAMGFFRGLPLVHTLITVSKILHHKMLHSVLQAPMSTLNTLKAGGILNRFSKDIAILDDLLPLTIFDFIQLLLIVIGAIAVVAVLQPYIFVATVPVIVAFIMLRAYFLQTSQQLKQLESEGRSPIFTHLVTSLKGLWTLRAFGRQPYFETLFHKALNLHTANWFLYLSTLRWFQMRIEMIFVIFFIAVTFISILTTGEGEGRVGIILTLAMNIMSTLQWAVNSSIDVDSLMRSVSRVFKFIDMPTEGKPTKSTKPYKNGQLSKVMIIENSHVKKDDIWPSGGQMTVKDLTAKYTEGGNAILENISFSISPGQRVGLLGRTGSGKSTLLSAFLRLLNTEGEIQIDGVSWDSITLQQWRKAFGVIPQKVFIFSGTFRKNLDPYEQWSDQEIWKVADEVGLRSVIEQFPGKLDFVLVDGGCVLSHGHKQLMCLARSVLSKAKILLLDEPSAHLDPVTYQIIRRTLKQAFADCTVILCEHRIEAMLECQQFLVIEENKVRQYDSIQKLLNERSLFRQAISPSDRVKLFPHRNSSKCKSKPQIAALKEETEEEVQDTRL
Assay: Cell Surface Expression-Horse Radish Peroxidase (CSE-HRP) Assay;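 for EC50 (with co-corrector): co-corrector chromenyl benzoic acid corrector at 2 or 3 µM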;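 for Maximum % activity (without co-corrector): % of on-plate positive control chromenyl benzoic acid corrector at 2 or 3 µM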
Format: cell-based
Conditions: for Maximum % activity (with co-corrector) / Emax: maximum at any tested concentration; for Emax: read-out: Maximum % activity (without co-corrector)
Outline: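 Corrector compounds were given as 8-point 3-fold series from 20 or 30 μM, with or without a 2 μM co-corrector, for 18-24 h at 33 °C. Surface HRP was read by luminol luminescence as % of positive control; variable-Hill-slope sigmoidal fitting gave EC50 from triplicate plates.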

[1] = test compound alone, without co-corrector, read-out: EC50 (without co-corrector)
[2] = with co-corrector, read-out: EC50 (with co-corrector)
[3] = test compound with co-corrector
[4] = test compound with co-corrector, read-out: EC50 (with co-corrector)
[5] = test compound without co-corrector
[6] = test compound without co-corrector, read-out: EC50 (without co-corrector)

| SMILES | EC50 [1] | Maximum % activity (with co-corrector) (with co-corrector) | EC50 [2] | Emax (without co-corrector) | Maximum % activity (with co-corrector) [3] | EC50 [4] | Emax [5] | EC50 [6] | EC50 (with co-corrector) [3] | EC50 (without co-corrector) [5] |
| --- | --- | --- | --- | --- | --- | --- | --- | --- | --- | --- |
| O=C(NS(=O)(=O)c1cccc2c1CCCN2)C1(c2ccc(C(F)(F)F)nc2C2CCC2)CC1 [Example GI-10, 1-[2-cyclobutyl-6-(trifluoromethyl)pyridin-3-yl]-N-(1,2,3,4-tetrahydroquinoline-5-sulfonyl)cyclopropane-1-carboxamide] | < 3 µM | +++ (≥350) | < 3 µM | > 150% | – | – | – | – | – | – |
| COCCOc1ncc(C2CCC2)cc1C1(C(=O)NS(=O)(=O)c2cccc3nc(C)ccc23)CC1 [Example GI-94, 1-[5-cyclobutyl-2-(2-methoxyethoxy)pyridin-3-yl]-N-(2-methylquinoline-5-sulfonyl)cyclopropane-1-carboxamide] | – | – | – | – | +++ (≥350) | < 3 µM | > 150% | < 3 µM | – | – |
| O=C(NS(=O)(=O)c1cccc2c1CCCN2)C1(c2cc(C3CCC3)cnc2N2CCCC2)CC1 [Example GI-31, 1-[5-cyclobutyl-2-(pyrrolidin-1-yl)pyridin-3-yl]-N-(1,2,3,4-tetrahydroquinoline-5-sulfonyl)cyclopropane-1-carboxamide] | – | – | – | – | +++ (≥350) | < 3 µM | > 150% | < 3 µM | – | – |
| COC(=O)C1(c2ccc(OC)c(C3(C(=O)NS(=O)(=O)c4cccc5ncccc45)CC3)c2)CC1 [II-30] | 3 to 10 µM | +++ (≥350) | < 3 µM | > 150% | – | – | – | – | – | – |
| COc1ccc(C2CC2)cc1C1(C(=O)NS(=O)(=O)c2cccc3ncccc23)CC1 [Example I-13, 1-(5-cyclopropyl-2-methoxyphenyl)-N-(quinoline-5-sulfonyl)cyclopropane-1-carboxamide] | < 3 µM | – | < 3 µM | – | – | – | – | – | – | – |
| CCc1cnc(OCC2CC2)c(C2(C(=O)NS(=O)(=O)c3cccc4ncccc34)CC2)c1 [Example GI-106, 1-[2-(cyclopropylmethoxy)-5-ethylpyridin-3-yl]-N-(quinoline-5-sulfonyl)cyclopropane-1-carboxamide] | – | – | – | – | +++ (≥350) | < 3 µM | > 150% | < 3 µM | – | – |
| CCc1cnc(N2CCCC2)c(C2(C(=O)NS(=O)(=O)c3cccc4ncccc34)CC2)c1 [GII-30, 1-[5-ethyl-2-(pyrrolidin-1-yl)pyridin-3-yl]-N-(quinoline-5-sulfonyl)cyclopropane-1-carboxamide] | – | – | – | – | +++ (≥350) | 3 to 10 µM | > 150% | 3 to 10 µM | – | – |
| COc1ncc(C2CCC2)cc1C1(C(=O)NS(=O)(=O)c2cccc3ncn(C)c23)CC1 [II-12] | 3 to 10 µM | +++ (≥350) | < 3 µM | > 150% | – | – | – | – | – | – |
| COc1ccc(C2CC2)cc1C1(C(=O)NS(=O)(=O)c2cccc3nc(C)ccc23)CC1 [II-60] | – | +++ (≥350) | – | > 150% | – | – | – | – | – | – |
| CO[C@H](C)COc1ccc(C)cc1C1(C(=O)NS(=O)(=O)c2cccc3ncccc23)CC1 [Example I-115, 1-{2-[(2R)-2-methoxypropoxy]-5-methylphenyl}-N-(quinoline-5-sulfonyl)cyclopropane-1-carboxamide] | < 3 µM | +++ (≥350) | < 3 µM | > 150% | – | – | – | – | – | – |
| COc1ccc(OC)c(C2(C(=O)NS(=O)(=O)c3cccc4ccccc34)CC2)c1 [Example I-28, 1-(2,5-dimethoxyphenyl)-N-(naphthalene-1-sulfonyl)cyclopropane-1-carboxamide] | < 3 µM | +++ (≥350) | < 3 µM | > 150% | – | – | – | – | – | – |
| Cc1ccc(C)c(C2(C(=O)NS(=O)(=O)c3cccc4ncccc34)CC2)c1 [II-61] | < 3 µM | +++ (≥350) | < 3 µM | > 150% | – | – | – | – | – | – |
| CCOc1ccc(C(C)(C)OCC)cc1C1(C(=O)NS(=O)(=O)c2cccc3ncccc23)CC1 [Example I-99, 1-[2-ethoxy-5-(2-ethoxypropan-2-yl)phenyl]-N-(quinoline-5-sulfonyl)cyclopropane-1-carboxamide] | < 3 µM | +++ (≥350) | < 3 µM | > 150% | – | – | – | – | – | – |
| COc1ccc(C)c(C2(C(=O)NS(=O)(=O)c3cccc4ncccc34)CCN(C)CC2)c1 [Example III-94, 4-(5-methoxy-2-methylphenyl)-1-methyl-N-(quinoline-5-sulfonyl)piperidine-4-carboxamide] | > 10 µM | + (<150) | > 10 µM | < 50% | – | – | – | – | – | – |
| CCOc1ncc(CC)cc1C1(C(=O)NS(=O)(=O)c2cccc3nc(C)ccc23)CC1 [Example GI-117, 1-(2-ethoxy-5-ethylpyridin-3-yl)-N-(2-methylquinoline-5-sulfonyl)cyclopropane-1-carboxamide] | – | – | – | – | +++ (≥350) | < 3 µM | > 150% | < 3 µM | – | – |
| Cc1ccc(OC(F)F)c(C2(C(=O)NS(=O)(=O)c3cccc4ncccc34)CC2)c1 [Example I-100, 1-[2-(difluoromethoxy)-5-methylphenyl]-N-(quinoline-5-sulfonyl)cyclopropane-1-carboxamide] | < 3 µM | +++ (≥350) | < 3 µM | > 150% | – | – | – | – | – | – |
| COc1ccc(C(F)(F)F)cc1C1(C(=O)NS(=O)(=O)c2cccc3ncccc23)CC1 [Example I-37, 1-[2-methoxy-5-(trifluoromethyl)phenyl]-N-(quinoline-5-sulfonyl)cyclopropane-1-carboxamide] | < 3 µM | +++ (≥350) | < 3 µM | > 150% | – | – | – | – | – | – |
| O=C(NS(=O)(=O)c1ccc(Cl)cc1)C1(c2ccc(Cl)cc2Cl)CC1 [Example III-9, N-(4-chlorobenzene-1-sulfonyl)-1-(2,4-dichlorophenyl)cyclopropane-1-carboxamide] | > 10 µM | + (<150) | 3 to 10 µM | < 50% | – | – | – | – | – | – |
| CCC(CC)S(=O)(=O)NC(=O)C1(c2ccccc2)CC1 [Example III-116, N-(pentane-3-sulfonyl)-1-phenylcyclopropane-1-carboxamide] | > 10 µM | + (<150) | > 10 µM | < 50% | – | – | – | – | – | – |
| CCOC(C)(C)c1ccc(OC)c(C2(C(=O)NS(=O)(=O)c3cccc4ncccc34)CC2)c1 [II-96] | < 3 µM | +++ (≥350) | < 3 µM | > 150% | – | – | – | – | – | – |
| CC(C)Oc1ncc(Br)cc1C1(C(=O)NS(=O)(=O)c2cccc3c2CCCN3)CC1 [Example GI-2, 1-{5-bromo-2-[(propan-2-yl)oxy]pyridin-3-yl}-N-(1,2,3,4-tetrahydroquinoline-5-sulfonyl)cyclopropane-1-carboxamide] | < 3 µM | +++ (≥350) | < 3 µM | > 150% | – | – | – | – | – | – |
| CCc1ncc(OC)cc1C1(C(=O)NS(=O)(=O)c2cccc3ncccc23)CC1 [GII-17, 1-(2-ethyl-5-methoxypyridin-3-yl)-N-(quinoline-5-sulfonyl)cyclopropane-1-carboxamide] | – | – | – | – | ++ (≥150 and <350) | 3 to 10 µM | < 50% | 3 to 10 µM | – | – |
| COc1ccc(Br)cc1C1(C(=O)NS(=O)(=O)c2cccc3ccccc23)CC1 [Example I-1, 1-(5-bromo-2-methoxyphenyl)-N-(naphthalene-1-sulfonyl)cyclopropane-1-carboxamide] | < 3 µM | +++ (≥350) | < 3 µM | > 150% | – | – | – | – | – | – |
| Cc1ccc2c(S(=O)(=O)NC(=O)C3(c4cc(C5CC5)cnc4N4CCCC4)CC3)cccc2n1 [Example GI-33, 1-[5-cyclopropyl-2-(pyrrolidin-1-yl)pyridin-3-yl]-N-(2-methylquinoline-5-sulfonyl)cyclopropane-1-carboxamide] | – | – | – | – | +++ (≥350) | < 3 µM | > 150% | 3 to 10 µM | – | – |
| COc1cc(C)c(C2(C(=O)NS(=O)(=O)c3cccc4ncccc34)CC2)cn1 [GII-23, 1-(6-methoxy-4-methylpyridin-3-yl)-N-(quinoline-5-sulfonyl)cyclopropane-1-carboxamide] | – | – | – | – | ++ (≥150 and <350) | – | 50 to 150% | – | ++^a | ++^a |
| COc1ncc(C(F)(F)F)cc1C1(C(=O)NS(=O)(=O)c2cccc3ncccc23)CC1 [II-7] | 3 to 10 µM | +++ (≥350) | < 3 µM | > 150% | – | – | – | – | – | – |
| O=C(NS(=O)(=O)c1ccccc1Cl)C1(c2cccc(Cl)c2)CC1 [Example III-23, N-(2-chlorobenzene-1-sulfonyl)-1-(3-chlorophenyl)cyclopropane-1-carboxamide] | 3 to 10 µM | +++ (≥350) | 3 to 10 µM | 50 to 150% | – | – | – | – | – | – |
| O=C(NS(=O)(=O)c1cccc2ncccc12)C1(c2ccccc2OC(F)(F)F)CCC1 [II-3] | 3 to 10 µM | +++ (≥350) | < 3 µM | > 150% | – | – | – | – | – | – |
| Cc1ccc(C2(C(=O)NS(=O)(=O)c3cccc4[nH]ccc34)CC2)c(OC(C)C)n1 [Example GI-82, N-(1H-indole-4-sulfonyl)-1-{6-methyl-2-[(propan-2-yl)oxy]pyridin-3-yl}cyclopropane-1-carboxamide] | – | – | – | – | +++ (≥350) | < 3 µM | > 150% | < 3 µM | – | – |
